# Reference: patent publication US20250228847A1, “COMBINATION THERAPY FOR TREATING CANCER” (AstraZeneca AB, priority 2022, published 2025)
# Key:
# LnCAP cells = experiment: Cell proliferation / viability assay (Sytox Green, AC50), 7 days treatment; type: cell-based; conditions: Homo sapiens, LnCAP cell line (mHSPC, AR+ T877A), single agent
# Description: (§1) The following cell lines were originally obtained from ATCC:
# (§2) Cell line identification was validated using the CellCheck assay (IDEXX Bioanalytics, Westbrook, ME, USA). All cell lines were validated free of virus Mycoplasma contamination using the MycoSEQ assay (Thermo Fisher Scientific, Waltham, MA, USA) or STAT-Myco assay (IDEXX Bioanalytics). All cell lines were grown RPMI-1640 growth media (Corning 17-105-CV) supplemented with 10% fetal bovine serum (FBS) or, when indicated, 10% charcoal stripped FBS (ThermoFisher Scientific, 12676029) and 2 mM glutamine.
# (§3) Cells in 384-well or 96-well plates were dosed using an Echo 555 (LabCyte, San Jose, CA, USA) or using the HP D300e Digital Dispenser (HP Life Science Dispensing), respectively. Live cell count pre- and post-treatment (7 days after treatment) was determined using CellTiter-Glo as per manufacturer's instructions (Promega, Madison, WI, USA; G7570).
# (§4) Cell viability was determined with the Sytox Green assay as described in Davies 2012 and the AC50 calculated. The HSA (Highest Single Agent) Synergy Score was calculated according to Bernenbaum 1989.
# C4-2 cells = experiment: as above; type: cell-based; conditions: C4-2 cell line (mCRPC, AR+, ARV7), single agent
# Description: as §1, §2, §3, §4
Compound,AC50 (LnCAP cells) [nM],AC50 (C4-2 cells) [nM]
"CCc1cc2ncc(CN3CCN(c4ccc(C(=O)NC)nc4)CC3)cc2[nH]c1=O [AZD5305, 5-{4-[(7-ethyl-6-oxo-5,6-dihydro-1,5-naphthyridin-3-yl)methyl]piperazin-1-yl}-N-methylpyridine-2-carboxamide]",> 1000,> 1000
"C[C@]12CC[C@H](O)CC1=CC[C@@H]1[C@@H]2CC[C@]2(C)C(c3cccnc3)=CC[C@@H]12 [Abiraterone, abiraterone]",4940,2810
